US20060079453A1, “Hla binding peptides and their uses” (priority 2002, published 2006)
No end group written: not given here.

How the values were obtained:
Experiment in all cases: biochemical
Format in all cases: binding
[1] = target: HLA-A*0301 (Homo sapiens, UniProt P04439)
[2] = target: HLA-A*1101 (Homo sapiens, UniProt P04439, A114D/D185E/E176A/F33Y/L180Q/S129P/T187R)
[3] = target: HLA-A*3101 (Homo sapiens, UniProt P04439, A270S/D185E/E176V/E277Q/F33T/G231S/G80R/H175R/I121M/I218V/I322F/K168Q/L300P/L318F/M331R/P217A/Q94H/R138Q/T323A/T345S/T97I/V358M)
[4] = target: HLA-A*3301 (Homo sapiens, UniProt P04439, A270S/D185E/E176V/E277Q/E87N/F33T/G231S/H175R/I121M/I218V/I322F/K168Q/K210R/L300P/L318F/M331R/P217A/Q86R/Q94H/R138Q/T323A/T345S/T97I/V358M/Y195H)
[5] = target: HLA-A*6801 (Homo sapiens, UniProt P04439, A269V/D185E/E176V/E277Q/E87N/F33Y/G231S/I121M/I166T/I218V/L180W/L300P/L318F/N151K/P208A/P217A/Q86R/R169H/T345S)

Chain of HLA-A*1101 (P04439 25-365 limits assumed, stated change not applied): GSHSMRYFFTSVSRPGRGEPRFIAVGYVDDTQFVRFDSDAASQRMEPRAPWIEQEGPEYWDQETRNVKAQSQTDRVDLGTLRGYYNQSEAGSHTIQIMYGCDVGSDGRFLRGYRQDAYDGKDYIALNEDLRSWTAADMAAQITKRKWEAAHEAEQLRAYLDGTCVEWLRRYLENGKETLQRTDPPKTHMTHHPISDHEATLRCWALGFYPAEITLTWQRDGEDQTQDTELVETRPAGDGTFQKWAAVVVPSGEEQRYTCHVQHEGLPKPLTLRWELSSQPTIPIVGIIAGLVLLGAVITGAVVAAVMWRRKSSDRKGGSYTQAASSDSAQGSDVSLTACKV

Sequence | IC50 [1] [µM] | IC50 [2] [µM] | IC50 [3] [µM] | IC50 [4] [µM] | IC50 [5] [µM]
VTVRVGGQLK | 0.216 | 0.019 | 8.24 | > 72.3 | 0.141
QQNQESKIMK | 3.47 | 0.077 | 28.1 | > 17.4 | 21.3
KVGPGGYPRR | 2.27 | 0.487 | 0.25 | 7.9 | 0.721
SVYGETLER | 0.044 | 0.011 | 0.235 | 0.16 | 0.017
LLFYSKVRKYR | 0.028 | 0.094 | 0.007 | 0.011 | 0.015
GTRQARRNRK | 0.1 | 0.634 | 3.8 | > 42.3 | 7.79
SFYGKTLEER | 0.642 | 0.205 | 0.017 | 0.066 | 0.042
KFSEYRHYCY |  | 7.48 | 0.308 | 49.4 | 14.6
VTIRIGGQLK | 0.051 | 0.014 | 4.46 | 65.8 | 0.025
ELTEVFEFAFK | 8.97 | 0.582 | 25.2 | 1.73 | 0.015
VTLDIQSTK | 0.078 | 0.013 | 2.05 | 1.95 | 0.237
VTIKVGGQLK | 0.188 | 0.059 | 6.06 | 47.6 | 0.127
VTVRIGGMQK | 0.054 | 0.013 | 2.58 | 44.4 | 0.155
VSIRVGGQTK | 0.341 | 0.021 | 29.9 | 39 | 0.29
KFSEFRWYRY | 4.75 | 1.59 | 0.034 | 0.856 | 12.8
KFIDFYSRIR |  | 9.01 | 0.0033 | 0.677 | 2.55
SFYGTTLEK | 0.034 | 0.015 | 0.517 | 3.38 | 0.498
SSFDIKSEVK | 1.9 | 0.019 | 19.8 | 70.3 | 0.031
RVHSIAGQYR | 0.031 | 0.034 | 0.0076 | 0.812 | 0.028

Sequence | IC50 [1] [µM] | IC50 [2] [µM] | IC50 [3] [µM] | IC50 [4] [µM] | IC50 [5] [µM]
ALKISQLQK | 0.015 | 0.096 | 3.2 | 23.8 | > 54.8
RLFEESLGIR | 0.064 | 1.1 | 0.297 | 0.788 | 0.409
EVYNFACTELK | 1.62 | 0.117 | 0.484 | 0.0059 | 0.0027
RVHFASPLH | 0.012 | 0.06 | 0.572 | > 123 | 7.62
KVGPGGYPRRK | 0.07 | 0.087 | 0.775 | > 5.06 | 0.921
VTIRVGGQLK | 0.043 | 0.013 | 3.59 | 86.1 | 0.028
TVQPGPGPGK | 0.041 | 0.0025 | 1.34 | 68.6 | 0.028
KISEYRHYNK | 0.029 | 0.018 | 0.397 | 24.8 | 15.6
VTVYGPGPGWK | 1.15 | 0.018 | > 9 | > 103 | 0.206
NVMGRWTGR | 3.88 | 0.794 | 0.04 | 0.018 | 0.02
GTGISYGRK | 0.48 | 0.077 | 58.1 | > 43.7 | 7.41
AVIFTPIYY | 0.025 | 0.0095 | 42.3 | 10.1 | 1.35
ILDLWVYK |  | 0.32 | 13.7 | 30.1 | 12.1
VVHAQLPAR |  | 0.127 | 0.0034 | 0.012 | 0.201
AFCWRPRRR | 0.273 | 17.9 | 0.06 | 0.075 | 1.09
MQSSFFMNR |  | 0.0011 | 0.029 | 0.075 | 0.0038
RFHSIAGQYK | 0.017 | 0.043 | 0.0013 | 0.629 | 0.083
KMFLQLAK | 0.045 | 0.062 | 0.677 | > 126 | 8.38
EVLEIPLIDLR | > 47 | 16.6 | 36.4 | 0.072 | 0.027

Sequence | IC50 [1] [µM] | IC50 [2] [µM] | IC50 [3] [µM] | IC50 [4] [µM] | IC50 [5] [µM]
AVADLTVVYR | 0.489 | 0.011 | 0.031 | 0.892 | 0.0073
KQENWYSLKK | 0.608 | 0.178 | 6.33 | > 136 | 4.79
KQLCDLLIK | 0.226 | 0.065 | 0.34 | 46.4 | 11.9
GLYNLLIRCLR |  | 1.57 | 0.25 | 0.401 | 1.62
LVYRDDFPK |  | 0.013 | 3.01 | 1.97 | 0.13
RFEDPTRRPYK |  | 0.432 | 0.053 | 1.76 | 7.34
KQHTCYLIR |  | 0.213 | 0.013 | 2.28 | 12.2
GTRQTRKNK |  | 3.1 | 13.4 | > 29.7 | 18.7
VTVGPGPGVWK |  | 0.0027 | 2.73 | 75.4 | 0.021
TVGPGPGPEK |  | 0.017 | 10.1 | 98.2 | 0.023
RFCLLFYSK |  | 0.484 | 0.083 | 0.45 | 0.232
LQMMNVNLQK | 0.025 | 0.0072 |  | 1.11 | 0.32
RMYVGGVEH | 0.0038 | 0.274 |  | > 123 | > 28.8
ATTDLTIVYR |  | 0.01 | 0.034 | 1.74 | 0.014
KSKFGYGAK | 0.036 | 0.596 |  | > 123 | > 7.63
KILIKIPVTK |  | 0.06 | 1.66 | 25 | 19.6
GVLDGLIYSK |  | 0.021 | 6.01 | > 25.2 | 0.831
FAFTDLTIVY |  | 21.2 | 42.1 | 131 | 0.346
SSPLFNNFYK | 0.1 | 0.0007 |  | 1.73 | 0.0063
